Reference: patent US20250326725A1, “PI4-Kinase Inhibitors and Methods of Using the Same” (The Board of Trustees of the Leland Stanford Junior …, priority 2019, published 2025)

What was measured:
HCV = assay: Anti-HCV assay (EC50); assay type: cell-based; details: Hepatitis C virus, read-out: HCV EC50
Protocol: Anti-HCV assay: Anti-HCV assays are performed as described by Cho et al. “Identification of a class of HCV inhibitors directed against the nonstructural protein NS4B.” Sci. Transl. Med. 2011; 2(15):15ra6.

EV71 = EV71 antiviral assay (EC50); assay type: cell-based, Enterovirus 71; details: Enterovirus A, EV71
EV68 = EV68 antiviral assay (EC50); assay type: cell-based
[1] = Cell toxicity (CC50) in HRV assay; details: human, HRV CC50
[2] = Cell toxicity (CC50) in EV71 assay; details: EV71 CC50
[3] = Cell toxicity (CC50) in EV68 assay; details: EV68 CC50

Structure (SMILES) | EC50 (HCV) | EC50 (EV71) | EC50 (EV68) | CC50 [1] | CC50 [2] | CC50 [3]
COc1ccc(-c2sc(NC(C)(C)c3ncccn3)nc2C)cc1S(=O)(=O)Nc1c(C)cccc1F [Compound S-34] | 1 nM | 1.8 nM | 6.8 nM | 19400 nM | 100000 nM | 22100 nM
COc1ccc(-c2sc(NC34CC(C3)C4)nc2C)cc1S(=O)(=O)Nc1c(C)cccc1F [Compound S-55] | 1 nM | 1.8 nM | 6.8 nM | 19400 nM | 100000 nM | 22100 nM
COc1ccc(-c2sc(NC(C)(C)C3CCOCC3)nc2C)cc1S(=O)(=O)Nc1c(F)cccc1CO [Compound S-22] | 2.7 nM | 0.8 nM | 4.8 nM | 15500 nM | 16500 nM | 19300 nM
COc1ccc(-c2sc(NC(C)(C)C3CCOCC3)nc2C)cc1S(=O)(=O)Nc1nccn1C [Compound S-29] | 5.7 nM | 9.8 nM | 39.1 nM | 98700 nM | 100000 nM | 102000 nM
COc1ccc(-c2sc(NC(C)(C)C3CCOCC3)nc2C)cc1S(=O)(=O)Nc1ccncc1C [Compound S-50] | 7.6 nM | 1.2 nM | 12.8 nM | 46600 nM | 38100 nM | 37600 nM
COc1ccc(-c2sc(NC(C)(C)C3CCNCC3)nc2C)cc1S(=O)(=O)Nc1ccc(F)cc1Cl [Compound S-52] | 75000 nM | 75000 nM | 100000 nM | 2320 nM | 3070 nM | 2230 nM
COc1ccc(-c2sc(NC(C)(C)C3CCOCC3)nc2C)cc1S(=O)(=O)Nc1ccc(Br)nc1F [Compound S-2] | 2.3 nM | 0.8 nM |  | 33400 nM | 66600 nM | 
COc1ccc(-c2sc(NC(C)(C)C3CCOCC3)nc2C)cc1S(=O)(=O)NC1CCN(C(C)=O)CC1 [Compound S-12] | 17.5 nM | 4.1 nM | 106 nM | 65900 nM | 53800 nM | 66200 nM
COc1ccc(-c2sc(NC(C)(C)C3CCOCC3)nc2C)cc1S(=O)(=O)Nc1cccc2[nH]cc(Br)c12 [Compound S-27] | 2.3 nM | 3.6 nM | 5.9 nM | 1410 nM | 6230 nM | 1760 nM
COc1ccc(-c2sc(NC(C)(C)C3CCOCC3)nc2C)cc1S(=O)(=O)NC1CCN(C(=O)OC(F)(F)F)CC1 [Compound S-20] | 25.7 nM | 3.6 nM | 50.7 nM | 49400 nM | 18900 nM | 51600 nM
COc1ccc(-c2sc(NC(C)(C)C3CCOCC3)nc2C)cc1S(=O)(=O)NC1CCC(O)CC1 (stereo not drawn) [Compound S-5] | 1.7 nM | 0.8 nM |  | 57000 nM | 47200 nM | 
COc1ccc(-c2sc(NC(C)(C)C3CCOCC3)nc2C)cc1S(=O)(=O)NC1CCN(S(C)(=O)=O)CC1 [Compound S-13] | 8.1 nM | 1.3 nM | 39.1 nM | 102000 nM | 99400 nM | 102000 nM
COc1ccc(-c2sc(NC(C)(C)c3ccncc3)nc2C)cc1S(=O)(=O)Nc1c(C)cccc1F [Compound S-37] | 0.1 nM | 0.1 nM | 0.5 nM | 4390 nM | 21800 nM | 3880 nM
COc1ccc(-c2sc(NC(C)(C)C3CCOCC3)nc2C)cc1S(=O)(=O)Nc1ccc(NC(C)=O)cc1 [Compound S-40] | 0.2 nM | 0.0751 nM | 1.2 nM | 40800 nM | 78100 nM | 42700 nM
COc1ccc(-c2sc(NC(C)(C)C3CCOCC3)nc2C)cc1S(=O)(=O)NC1CCN(C(=O)OC(C)(C)C)CC1 [Compound S-9] | 5 nM | 4.8 nM | 29 nM | 100000 nM | 69300 nM | 100000 nM
COc1ccc(-c2sc(NC(C)(C)C3CCOCC3)nc2C)cc1S(=O)(=O)Nc1c(C)cc(F)cc1F [Compound S-28] | 4.9 nM | 4.2 nM | 9.1 nM | 87400 nM | 100000 nM | 77600 nM
COc1ccc(-c2sc(NC(C)(C)C3CCOCC3)nc2C)cc1S(=O)(=O)Nc1ccc(F)cc1C(F)F [Compound S-30] | 11.2 nM | 2.2 nM | 59.2 nM | 3790 nM | 20200 nM | 6450 nM
COc1ccc(-c2sc(NC(C)(C)c3ncccn3)nc2C)cc1S(=O)(=O)Nc1ccccc1C(F)(F)F [Compound S-35] | 0.2 nM | 0.1 nM | 0.6 nM | 100000 nM | 100000 nM | 100000 nM

Structure (SMILES) | EC50 (HCV) | EC50 (EV71) | EC50 (EV68) | CC50 [1] | CC50 [2] | CC50 [3]
COc1ccc(-c2sc(NC(C)(C)c3ccccc3)nc2C)cc1S(=O)(=O)NC1CCN(C=O)CC1 [Compound S-43] | 2.1 nM | 0.3 nM | 5.1 nM | 100000 nM | 17500 nM | 100000 nM
COc1ccc(-c2sc(NC(C)(C)C3CCOCC3)nc2C)cc1S(=O)(=O)Nc1cccnc1C(F)(F)F [Compound S-15] | 82 nM | 65.3 nM | 335 nM | 100000 nM | 100000 nM | 63700 nM
COc1ccc(-c2sc(NC(C)(C)C3CCOCC3)nc2C)cc1S(=O)(=O)Nc1cccnc1OC [Compound S-18] | 11.9 nM | 4.4 nM | 14 nM | 62100 nM | 43200 nM | 80000 nM
COc1ccc(-c2oc(NC(C)(C)c3ccccn3)nc2C)cc1S(=O)(=O)Nc1ccncc1C [Compound S-47] | 9.6 nM | 1.2 nM | 27.6 nM | 49500 nM | 21100 nM | 49100 nM
COc1ccc(-c2sc(NC(C)(C)C3CCOCC3)nc2C)cc1S(=O)(=O)Nc1ccc(F)cc1C [Compound S-8] | 0.8 nM | 0.3 nM |  | 8470 nM | 91900 nM | 
COCC(C)(C)Nc1nc(C)c(-c2ccc(OC)c(S(=O)(=O)Nc3c(C)cccc3F)c2)s1 [Compound S-63] | 1.5 nM | 8.4 nM | 3.4 nM | 27700 nM | 83800 nM | 40600 nM
COc1ccc(-c2sc(NC(C)(C)C3CCOCC3)nc2C)cc1S(=O)(=O)Nc1ncccc1C [Compound S-25] | 20.6 nM | 14.1 nM | 93.1 nM | 24800 nM | 90700 nM | 24000 nM
COc1ccc(-c2oc(NC(C)(C)c3ccccc3)nc2C)cc1S(=O)(=O)Nc1ccncc1C [Compound S-46] | 0.9 nM | 0.4 nM | 2.6 nM | 52400 nM | 24500 nM | 44500 nM
COc1ccc(-c2oc(NC(C)(C)c3ccccc3)nc2C)cc1S(=O)(=O)Nc1cccnc1C [Compound S-33] | 0.1 nM | 0.1 nM | 0.7 nM | 30500 nM | 71300 nM | 5230 nM
COc1ccc(-c2sc(NC(C)(C)c3ccccc3)nc2C)cc1S(=O)(=O)Nc1ccncc1C(F)(F)F [Compound S-44] | 30.6 nM | 3.5 nM | 1990 nM | 32100 nM | 18200 nM | 33500 nM
COc1ccc(-c2sc(NC(C)(C)C3CCN(C(C)=O)CC3)nc2C)cc1S(=O)(=O)Nc1ccc(F)cc1Cl [Compound S-51] | 1.5 nM | 1.3 nM | 11.5 nM | 52700 nM | 62100 nM | 37000 nM
COc1ccc(-c2sc(NC3(C4CCOCC4)CC3)nc2C)cc1S(=O)(=O)Nc1ccccc1Cl [Compound S-19] | 31.5 nM | 15.8 nM | 22100 nM | 37700 nM | 18300 nM | 39400 nM
COc1ccc(-c2oc(NC(C)(C)c3cccnc3)nc2C)cc1S(=O)(=O)Nc1ccncc1C [Compound S-48] | 74.5 nM | 4.5 nM | 217 nM | 100000 nM | 100000 nM | 100000 nM
COc1ccc(-c2sc(NC(C)(C)C3CCOCC3)nc2C)cc1S(=O)(=O)Nc1c(C)ncnc1C [Compound S-17] | 10.7 nM | 3.7 nM | 25.5 nM | 100000 nM | 99900 nM | 100000 nM
COC(=O)N1CCC(NS(=O)(=O)c2cc(-c3sc(NC(C)(C)c4ccccc4)nc3C)ccc2OC)CC1 [Compound S-36] | 0.1 nM | 0.1 nM | 0.7 nM | 30500 nM | 71300 nM | 5230 nM
COc1ccc(-c2sc(NC(C)(C)c3ccncc3)nc2C)cc1S(=O)(=O)Nc1ccncc1C [Compound S-49] | 10 nM | 1 nM | 50.7 nM | 66300 nM | 29500 nM | 71400 nM
COc1ccc(-c2sc(NC(C)(C)C3CCOCC3)nc2C)cc1S(=O)(=O)Nc1ccncc1C(F)(F)F [Compound S-26] | 18.1 nM | 2.3 nM | 1410 nM | 38700 nM | 88700 nM | 39100 nM
COc1ccc(-c2sc(NC(C)(C)C3CCOCC3)nc2C)cc1S(=O)(=O)Nc1c(F)cccc1C(F)F [Compound S-31] | 0.5 nM | 0.2 nM | 0.8 nM | 52300 nM | 70600 nM | 61800 nM
